Values quoted from earlier work in article PMC11258229 (Scientific Reports, 2024).

Tests used:
[1] = high permeability and low solubility

biopharmaceutical classification system category [1]: class II
half-life (T1/2): twenty to sixty six
mean T1/2: thirty five
renal clearance, share of the total conjugate oral dosage: around 13%
SMILES: CC[C@@H]([C@H](C)O)n1ncn(-c2ccc(N3CCN(c4ccc(OC[C@@H]5CO[C@@](Cn6cncn6)(c6ccc(F)cc6F)C5)cc4)CC3)cc2)c1=O [Posaconazole]
